Reference: US20160122320A1, “USEFUL COMBINATIONS OF MONOBACTAM ANTIBIOTICS WITH BETA-LACTAMASE INHIBITORS” (Basilea Pharmaceutica AG, priority 2005, published 2016)
Structures can show the parent of a compound that is named as a salt.

Key:
Test in all cases: MIC, NCCLS broth microdilution
Format in all cases: cell-based
Acinetobacter sp. J2 = conditions: Acinetobacter sp. J2; MIC of antibiotic compound 1 with the labelled bridged monobactam of formula II and clavulanate, 4 mg/L each
[1] = tested on: Pseudomonas aeruginosa MK1184; conditions: MIC of antibiotic compound 1 with the labelled bridged monobactam of formula II and clavulanate, 4 mg/L each
[2] = tested on: Pseudomonas aeruginosa 1973E; conditions: MIC of antibiotic compound 1 with the labelled bridged monobactam of formula II and clavulanate, 4 mg/L each
Description: Antimicrobial activity of the compounds and of their combinations was determined against a selection of organisms according to the standard procedures described by the National Committee for Clinical Laboratory Standards (National Committee for Clinical Laboratory. Standards (2000). Methods for Dilution Antimicrobial Susceptibility Tests for Bacteria That Grow Aerobically-Fifth Edition: Approved Standard M7-A5. NCCLS, Wayne, Pa., USA).
In all cases the final concentration of DMSO incubated with the bacteria is less than or equal to 1%. […] Plates were incubated overnight at an appropriate temperature (30° C. or 37° C.) and optical densities assessed by eye. The MIC value is defined as the lowest compound concentration completely inhibiting visible growth of the test organism. When combinations between compounds of formula I with compounds of formula II and are evaluated the compounds of formula I are tested in dilution series as described above while the compounds of formula II and III-XIII were present in all wells at a constant concentration of 4 μg/mL each.

Enterobacter cloacae P99 = conditions: MIC of antibiotic compound 1 with the labelled bridged monobactam of formula II and clavulanate, 4 mg/L each
[3] = tested on: Klebsiella pneumoniae CF104; conditions: MIC of antibiotic compound 1 with the labelled bridged monobactam of formula II and clavulanate, 4 mg/L each
Serratia marcescens S6 = conditions: MIC of antibiotic compound 1 with the labelled bridged monobactam of formula II and clavulanate, 4 mg/L each
[4] = tested on: Stenotrophomonas malthophilia 1AC736; conditions: Stenotrophomonas malthophilia 1AC736; MIC of antibiotic compound 1 with the labelled bridged monobactam of formula II and clavulanate, 4 mg/L each

Row | SMILES | MIC of antibiotic at fixed inhibitor concentration (4 mg/L) (Acinetobacter sp. J2) | MIC of antibiotic at fixed inhibitor concentration (4 mg/L) [1] | MIC of antibiotic at fixed inhibitor concentration (4 mg/L) [2] | MIC of antibiotic at fixed inhibitor concentration (4 mg/L) (Enterobacter cloacae P99) | MIC of antibiotic at fixed inhibitor concentration (4 mg/L) [3] | MIC of antibiotic at fixed inhibitor concentration (4 mg/L) (Serratia marcescens S6) | MIC of antibiotic at fixed inhibitor concentration (4 mg/L) [4]
1 | O=C(C[n+]1ccc2ccccc2c1)N1CC[C@@H]2[C@H]1C(=O)N2S(=O)(=O)[O-] [Compound 104, (1S,5R)-2-(2-(2-isoquinolinium)acetyl)-7-oxo-2,6-diazabicyclo[3.2.0]heptane-6-sulfonate, inner salt] | >32 mg/L | 32 mg/L | 4 mg/L | 32 mg/L | 0.5 mg/L | 2 mg/L | 0.125 mg/L
2 | O=C(CSc1nnnn1-c1ccccc1)N1CC[C@@H]2[C@H]1C(=O)N2S(=O)(=O)[O-].[Na+] [Compound 201] | 4 mg/L | 32 mg/L | 8 mg/L | 32 mg/L | >32 mg/L | 2 mg/L | 0.125 mg/L
3 | Cc1nnc(SCC(=O)N2CC[C@@H]3[C@H]2C(=O)N3S(=O)(=O)[O-])s1.[Na+] [Compound 202, Sodium(1S,5R)-2-[2-(1-methyl(1,3,4-thiadiazol-2-ylthio))acetyl]-7-oxo-2,6-diazabicyclo[3.2.0]heptane-6-sulfonate] | 4 mg/L | 8 mg/L | 4 mg/L | 16 mg/L | 2 mg/L | 0.5 mg/L | 0.125 mg/L
4 | CN(C)CCNC(=O)c1ccc(NC(=O)N2CC[C@@H]3[C@H]2C(=O)N3S(=O)(=O)[O-])cc1.[Na+] [Compound 310, Sodium(1S,5R)-2-[N-(4-{N-[2-(dimethylamino)ethyl]carbamoyl}phenyl)carbamoyl]-7-oxo-2,6-diazabicyclo[3.2.0]heptane-6-sulfonate] | >32 mg/L | 16 mg/L | 4 mg/L | 4 mg/L | 2 mg/L | 0.5 mg/L | 0.125 mg/L
5 | NC(=O)c1c[n+](CC(=O)N2CC[C@@H]3[C@H]2C(=O)N3S(=O)(=O)[O-])ccc1N [Compound 126, (1S,5R)-2-[2-(4-amino-3-carbamoylpyridinium)acetyl]-7-oxo-2,6-diazabicyclo[3.2.0]heptane-6-sulfonate, inner salt] | 2 mg/L | 16 mg/L | 8 mg/L | 32 mg/L | >32 mg/L | 0.125 mg/L | 0.125 mg/L
6 | NS(=O)(=O)c1cccc(NC(=O)N2CC[C@@H]3[C@H]2C(=O)N3S(=O)(=O)[O-])c1.[Na+] [Compound 308] | >32 mg/L | >32 mg/L | 4 mg/L | 16 mg/L | 0.5 mg/L | 0.5 mg/L | 0.125 mg/L
